Reference: US7531320B2, “Modulation of β-catenin/TCF-activated transcription” (priority 2003, dated 2009)

What was measured:
c-myc = experiment: Real Time RT-PCR in SW480 cells, c-myc; assay type: cell-based, human; conditions: 25 μM; for ΔCT c-myc: relative to β-actin
Description: (§1) The RNeasy Midi Kit (Qiagen) was used for RNA extraction and Real Time RT-PCR was performed according to the protocol provided with the SYBR Green PCR Master Mix Kit (Perkin Elmer Biosystems, Shelton, Conn.). The primers used for cyclin D1, axin2, hnkd, c-myc, c-jun, and fra-1 amplifications were: cyclin D1 forward primer:5′-[…]-CCTGCTG-3′ (SEQ ID NO: 32) reverse primer: 5′-[…]-3′ (SEQ ID NO: 33) leading to a product size of approximately 300 bp; axin2 forward primer: 5′-[…] GGAAA-CT-3′ (SEQ ID NO: 34) and reverse primer: 5′-[…]-GAGA-3′ (SEQ ID NO: 35); hnkd forward primer: 5′-[…] TTGCGT-3′ (SEQ ID NO: 36) and the reverse primer: 5′-[…] ACGT-3′ (SEQ ID NO: 37); c-myc forward primer: 5′-GAA-[…] CTGC-3′ (SEQ ID NO: 38) and reverse primer: 5′-[…]-G-3′ (SEQ ID NO: 39); c-jun forward primer: 5′-[…]-3′ (SEQ ID NO: 40) and reverse primer: 5′-[…]-3′ (SEQ ID NO: 41); fra-1 forward primer: 5′-ACC-[…]-[…]-3′ (SEQ ID NO: 42) and reverse primer: 5′-[…]-TT-3′ (SEQ ID NO: 43). β-actin was used for normalization. […]
(§2) 1 μg of mRNA, for each time point, was subjected to Real Time RT-PCR. Expression level of endogenous cyclin D1, c-myc, fibronectin, hnkd, axin2, c-jun, and BMP-4 were measured relative to β-actin. Quantitation of The ΔCycle of Threshold (CT) values was determined by subtracting the average values of each set by the corresponding average values obtained for β-actin. […]
(§3) The cyclin D1 gene is inappropriately expressed in many different tumor types, and is known to be a direct target of the Wnt/β-catenin pathway (Shtutman et al., “The cyclin D1 gene is a target of the beta-catenin/LEF-1 pathway,” Proc. Natl. Acad. Sci. USA 96:5522-27 (1999); Tetsu et al., “Beta-catenin regulates expression of cyclin D1 in colon carcinoma cells,” Nature 398:422-26 (1999)). […] Expression level of endogenous cyclin D1, c-myc, fibronectin, hnkd, axin2, c-jun, and BMP-4 were measured relative to β-actin. Quantitation of The ΔCycle of Threshold (CT) values was determined by subtracting the average values of each set by the corresponding average values obtained for β-actin. […]

axin2 = experiment: Real Time RT-PCR in SW480 cells, axin2; assay type: cell-based, human; conditions: 25 μM; for ΔCT axin2: relative to β-actin
Description: as §1, §2, §3

full-length mouse CBP = biological target: T1, full-length mouse CBP (Mus musculus, UniProt P45481); experiment: 14C-labeled COMPOUND 1 incorporation into SW480 nuclear lysates transfected with CBP; assay type: binding; conditions: 100 μM and 200 μM cold COMPOUND 1, dose dependent
T1 construct: vectors expressing full-length Xenopus laevis β-catenin (2.2 μg) or full-length mouse CBP (1.1 μg); expressed in transfected cells; host or cells: SW480
T1 sequence (P45481 whole entry): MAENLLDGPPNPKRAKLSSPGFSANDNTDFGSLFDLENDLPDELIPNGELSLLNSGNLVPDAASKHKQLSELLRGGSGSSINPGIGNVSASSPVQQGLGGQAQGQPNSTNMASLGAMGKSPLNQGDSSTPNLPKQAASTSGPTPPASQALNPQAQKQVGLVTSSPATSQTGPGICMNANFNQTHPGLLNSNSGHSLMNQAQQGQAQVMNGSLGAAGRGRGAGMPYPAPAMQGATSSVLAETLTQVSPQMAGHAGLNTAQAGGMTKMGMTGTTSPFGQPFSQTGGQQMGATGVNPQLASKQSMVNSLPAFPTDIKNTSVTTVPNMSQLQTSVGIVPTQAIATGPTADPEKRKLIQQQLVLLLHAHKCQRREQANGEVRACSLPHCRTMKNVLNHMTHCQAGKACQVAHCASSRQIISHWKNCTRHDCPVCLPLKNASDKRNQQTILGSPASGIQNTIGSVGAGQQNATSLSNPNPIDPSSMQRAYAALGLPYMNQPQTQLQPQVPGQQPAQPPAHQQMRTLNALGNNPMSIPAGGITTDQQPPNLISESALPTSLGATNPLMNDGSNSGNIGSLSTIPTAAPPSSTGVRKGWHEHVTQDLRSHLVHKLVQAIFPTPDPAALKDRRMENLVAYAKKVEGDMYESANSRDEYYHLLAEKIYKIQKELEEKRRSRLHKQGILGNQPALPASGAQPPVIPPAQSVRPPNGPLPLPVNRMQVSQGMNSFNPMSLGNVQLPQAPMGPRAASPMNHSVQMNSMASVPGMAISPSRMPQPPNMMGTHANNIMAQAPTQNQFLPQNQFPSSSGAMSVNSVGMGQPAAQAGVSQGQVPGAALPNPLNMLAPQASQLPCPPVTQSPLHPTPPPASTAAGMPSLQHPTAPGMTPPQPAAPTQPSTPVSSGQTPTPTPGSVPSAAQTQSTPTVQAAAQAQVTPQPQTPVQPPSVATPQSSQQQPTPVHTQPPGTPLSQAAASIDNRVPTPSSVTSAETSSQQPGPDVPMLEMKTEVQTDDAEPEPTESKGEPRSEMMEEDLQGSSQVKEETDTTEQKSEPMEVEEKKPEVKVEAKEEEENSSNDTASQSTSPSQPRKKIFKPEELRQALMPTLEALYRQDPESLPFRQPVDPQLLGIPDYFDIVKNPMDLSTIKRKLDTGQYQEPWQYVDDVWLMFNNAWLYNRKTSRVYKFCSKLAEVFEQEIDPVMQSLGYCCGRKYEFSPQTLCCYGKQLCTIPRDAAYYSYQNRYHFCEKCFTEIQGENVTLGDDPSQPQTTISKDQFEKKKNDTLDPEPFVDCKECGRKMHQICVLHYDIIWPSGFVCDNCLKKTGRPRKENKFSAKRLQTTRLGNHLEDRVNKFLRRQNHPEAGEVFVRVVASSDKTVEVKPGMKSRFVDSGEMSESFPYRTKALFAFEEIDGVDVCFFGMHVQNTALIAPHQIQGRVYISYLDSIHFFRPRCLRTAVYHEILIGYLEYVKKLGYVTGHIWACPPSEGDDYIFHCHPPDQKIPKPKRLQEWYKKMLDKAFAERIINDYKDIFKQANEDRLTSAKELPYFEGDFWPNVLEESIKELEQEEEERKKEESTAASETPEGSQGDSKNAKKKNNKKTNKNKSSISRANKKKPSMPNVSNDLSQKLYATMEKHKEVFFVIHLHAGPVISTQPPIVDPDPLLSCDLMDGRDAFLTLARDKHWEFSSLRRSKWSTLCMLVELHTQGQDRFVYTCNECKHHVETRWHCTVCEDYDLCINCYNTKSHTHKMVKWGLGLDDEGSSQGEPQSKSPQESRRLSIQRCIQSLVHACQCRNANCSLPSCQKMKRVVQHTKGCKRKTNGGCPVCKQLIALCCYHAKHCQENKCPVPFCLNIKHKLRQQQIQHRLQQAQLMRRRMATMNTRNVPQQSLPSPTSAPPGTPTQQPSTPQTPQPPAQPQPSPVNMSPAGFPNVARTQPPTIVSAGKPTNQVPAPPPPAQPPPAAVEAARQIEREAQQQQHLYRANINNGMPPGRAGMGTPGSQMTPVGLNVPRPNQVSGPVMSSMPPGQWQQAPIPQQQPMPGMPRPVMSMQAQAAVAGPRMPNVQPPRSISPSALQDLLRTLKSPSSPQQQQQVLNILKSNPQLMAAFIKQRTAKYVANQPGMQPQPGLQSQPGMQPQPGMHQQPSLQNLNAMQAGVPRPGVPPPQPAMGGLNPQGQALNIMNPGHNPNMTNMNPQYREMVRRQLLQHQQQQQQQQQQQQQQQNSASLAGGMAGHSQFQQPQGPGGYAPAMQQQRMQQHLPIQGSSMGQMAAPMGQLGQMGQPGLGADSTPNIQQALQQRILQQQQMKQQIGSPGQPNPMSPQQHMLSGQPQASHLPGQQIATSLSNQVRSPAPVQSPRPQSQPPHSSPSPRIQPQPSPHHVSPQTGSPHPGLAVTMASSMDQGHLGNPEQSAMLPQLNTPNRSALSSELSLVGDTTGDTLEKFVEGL
Description: FIG. 1. COMPOUND 1 inhibits β-catenin/TCF transcription. • A(i) and A(ii). Structures of COMPOUND 1, COMPOUND 2, COMPOUND 3, COMPOUND 4, and COMPOUND 5. • B(i) and B(ii). […] SW480 cells (10^5), (FIG. 1B(i)), were transfected with β-catenin/TCF luciferase construct. Cells were treated with COMPOUND 1 (1-64 μM). 24 hours post treatment lysates were prepared and subjected to dual luciferase assay. The data is represented in different form in FIG. 1B(ii). • C. COMPOUND 1 has no effect on NFAT reporter construct. Stably transfected Jurkat cells, right panel, with an NFAT reporter construct, were stimulated with PMA (10 ng/ml)/lonomycin (1 μg/ml), and treated with COMPOUND 1 (0.781-50 μM). 24 hours post treatment lysates were prepared and subjected to dual luciferase assay. All experiments were performed in duplicate and the values plotted as means +/−standard deviation. • D. CBP is the molecular target of COMPOUND 1. […] The lysates were desalted using G-25 1 cc columns (Pharmacia) to remove the unbound ^14C-labeled-COMPOUND 1, and ^14C-labeled-COMPOUND 1 incorporation was measured.
A series of further investigations were performed to further validate that COMPOUND 1 binds CBP. […] Cell lysates were then desalted using G-25 columns to remove the unbound ^14C-labeled COMPOUND 1 and the incorporation of radioactivity was measured.

With `O=C1C(Cc2ccc(O)cc2)N2C(=O)CCN(C(=O)NCc3ccccc3)C2CN1Cc1cccc2ccccc12` (stereo not shown) [COMPOUND 1] the “mRNA c-myc (direction)” value (c-myc) was “↑”, the ΔCT c-myc (c-myc; 4 hours) was −0.9 and the ΔCT c-myc (c-myc; 8 hours) was −2.4. For the same molecule, the “mRNA axin2 (direction)” value (axin2) was “↓”, the “ΔCT axin2” value (axin2; 4 hours) was 0.3 and the “ΔCT axin2” value (axin2; 8 hours) was 0.8. For the same molecule, the “Competition of 14C-labeled COMPOUND 1 incorporation by cold COMPOUND 1” value (full-length mouse CBP) was “competed away”.
